# According to BindingDB's records for PubMed 11546835 (Mcgill University, 2001):
# pKi: −log10 of the molar value. Values joined by “and” are separate entries in the source; they are usually repeats but may differ in a detail not shown here. Equal values may be shown once. Residues, ends and D or L forms follow the SMILES beside them.
# Target: Nociceptin receptor (Mus musculus, UniProt P35377)
# Sequence (P35377 whole entry): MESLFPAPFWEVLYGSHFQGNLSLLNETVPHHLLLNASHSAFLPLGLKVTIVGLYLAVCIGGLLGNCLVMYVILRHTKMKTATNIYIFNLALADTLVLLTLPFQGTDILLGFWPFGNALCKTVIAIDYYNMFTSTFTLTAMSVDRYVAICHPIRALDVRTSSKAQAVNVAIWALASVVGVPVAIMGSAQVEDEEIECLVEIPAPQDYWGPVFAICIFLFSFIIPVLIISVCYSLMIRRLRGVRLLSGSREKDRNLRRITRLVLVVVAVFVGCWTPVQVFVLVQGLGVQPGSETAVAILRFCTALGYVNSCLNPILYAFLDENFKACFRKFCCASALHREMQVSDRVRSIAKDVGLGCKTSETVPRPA
row,Compound,pKi
1,CSCC[C@H](NC(=O)[C@H](Cc1ccccc1)NC(=O)CNC(=O)CNC(=O)[C@@H](N)Cc1ccc(O)cc1)C(=O)O [2-[(S)-2-(2-{2-[(S)-2-Amino-3-(4-hydroxy-phenyl)-propionylamino]-acetylamino}-acetylamino)-1-oxo-3-phenyl-propylamino]-4-methylsulfanyl-butyric acid],6.00
2,Oc1ccc2c3c1OC1c4[nH]c5c(c4CC4(O)CN(CCC314)C(C1CC1)C2)CC1(O)CN2CCC13c1c(ccc(O)c1OC53)CC2C1CC1 (stereo not given) [CAS_105618-26-6],6.05 and 5.12
3,CC(C)C[C@H](NC(=O)[C@H](Cc1ccccc1)NC(=O)CNC(=O)CNC(=O)[C@@H](N)Cc1ccc(O)cc1)C(=O)N[C@@H](CCCNC(=N)N)C(=O)N[C@@H](CCCCN)C(=O)N[C@@H](Cc1ccc(O)cc1)C(=O)N1CCC[C@H]1C(=O)N[C@@H](CCCCN)C(=O)O [CB0427223] (H-YGGFLRKYPK-OH),6.72
4,CC(C)C[C@H](NC(=O)[C@H](Cc1ccccc1)NC(=O)CNC(=O)CNC(=O)[C@@H](N)Cc1ccc(O)cc1)C(=O)N[C@@H](CCCN=C(N)N)C(=O)N[C@@H](CCCN=C(N)N)C(=O)N[C@@H](CCC(N)=O)C(=O)N[C@@H](Cc1ccccc1)C(=O)N[C@@H](CCCCN)C(=O)N[C@H](C(=O)N[C@H](C(=O)N[C@H](C(=O)O)[C@@H](C)O)C(C)C)C(C)C [Dynorphin B (1-13)],7.47 and 6.61
5,C[C@H](NC(=O)CNC(=O)[C@@H](NC(=O)[C@H](Cc1ccccc1)NC(=O)CNC(=O)CNC(=O)[C@@H](N)Cc1ccccc1)[C@@H](C)O)C(=O)O [OFQ/N (1-7)] (H-FGGFTGA-OH),6.36 and 6.44
